{
  "source": "patent US20150057246A1",
  "about": "“SILYL-CONTAINING HETEROCYCLIC COMPOUNDS AND METHODS OF USE THEREOF FOR THE TREATMENT OF VIRAL DISEASES” (priority 2012, published 2015)",
  "key": {"[1]": {"tested_on": "HCV 1a replicon", "experiment": "Cell-based HCV replicon assay (TaqMan), genotype 1a replicon", "settings": "Hepatitis C virus, 72 h, HCV genotype 1a replicon cells, replicon RNA by real time PCR, day 3; EC90 = concentration for ΔCT=3.2 over baseline", "experimental": "(§1) Measurement of inhibition by compounds of the present invention was performed using the HCV replicon system. Several different replicons encoding different HCV genotypes or mutations were used. In addition, potency measurements were made using different formats of the replicon assay, including different ways of measurements and different plating formats. See Jan M. Vrolijk et al., A replicons-based bioassay for the measurement of interferons in patients with chronic hepatitis C, 110 J. VIROLOGICAL METHODS 201 (2003); Steven S. Carroll et al., Inhibition of Hepatitis C Virus RNA Replication by 2′-Modified Nucleoside Analogs, 278(14) J. BIOLOGICAL CHEMISTRY 11979 (2003). However, the underlying principles are common to all of these determinations, and are outlined below.\n(§2) TaqMan®-Based Assay Protocol:\n(§3) Compounds of the present invention were assayed for cell-based anti-HCV activity using the following protocol. Replicon cells were seeded at 5000 cells/well in 96-well collagen I-coated Nunc plates in the presence of the test compound. Various concentrations of test compound, typically in 10 serial 2-fold dilutions, were added to the assay mixture, with the starting concentration ranging from 250 μM to 1 μM. The final concentration of DMSO was 0.5%, fetal bovine serum was 5%, in the assay media. Cells were harvested on day 3 by the addition of 1× cell lysis buffer (Ambion cat #8721). The replicon RNA level was measured using real time PCR (TaqMan® assay). The amplicon was located in 5B. The PCR primers were: 5B.2F, ATGGACAGGCGCCCTGA (SEQ. ID NO. 1); 5B.2R, […] (SEQ. ID NO. 2); the probe sequence was FAM-labeled CACGCCATGCGCTGCGG (SEQ. ID NO. 3). GAPDH RNA was used as endogenous control and was amplified in the same reaction as NS5B (multiplex PCR) using primers and VIC-labeled probe recommended by the manufacturer (PE Applied Biosystem). The real-time […] reactions were run on ABI PRISM 7900HT Sequence Detection System using the following program: 48° C. for 30 minutes, 95° C. for 10 minutes, 40 cycles of 95° C. for 15 sec, 60° C. for 1 minute. The ΔCT values (CT5B-CTGAPDH) were plotted against the concentration of test compound and fitted to the sigmoid dose-response model using XLfit4 (MDL). EC50 was defined as the concentration of inhibitor necessary to achieve ΔCT=1 over the projected baseline; EC90 the concentration necessary to achieve ΔCT=3.2 over the baseline. Alternatively, to quantitate the absolute amount of replicon RNA, a standard curve was established by including serially diluted T7 transcripts of replicon RNA in the Taqman assay. All TaqMan® reagents were from PE Applied Biosystems. Such an assay procedure was described in detail in e.g. Malcolm et al., Antimicrobial Agents and Chemotherapy 50: 1013-1020 (2006).\n(§4) HCV replicon EC50 assay data for various replicons and mutants was calculated for selected compounds of the present invention using this method and is provided in the tables above herein."}, "[2]": {"tested_on": "HCV 1a Y93H replicon", "experiment": "Cell-based HCV replicon assay (TaqMan), 1a Y93H mutant replicon", "settings": "Hepatitis C virus, 72 h, read-out: 1a Y93H EC90, HCV 1a Y93H mutant replicon cells, replicon RNA by real time PCR, day 3; EC90 = concentration for ΔCT=3.2 over baseline", "experimental": "as §1, §2, §3, §4"}, "[3]": {"tested_on": "HCV 2b replicon", "experiment": "Cell-based HCV replicon assay (TaqMan), genotype 2b replicon", "settings": "Hepatitis C virus, 72 h, read-out: 2b EC90, HCV genotype 2b replicon cells, replicon RNA by real time PCR, day 3; EC90 = concentration for ΔCT=3.2 over baseline", "experimental": "as §1, §2, §3, §4"}},
  "data": [
    {"smiles": "COC(=O)N[C@H](C(=O)N1CCC[C@H]1c1ncc(-c2ccc(-c3ccc4c(ccc5nc([C@@H]6C[Si](C)(C)CN6C(=O)[C@@H](NC(=O)OC)C6CCCC6)[nH]c54)c3)cc2)[nH]1)C(C)C", "note": "[Compound 58]", "values": [
      {"measurement": "EC90", "setting": "[1]", "result": 0.45, "unit": "nM"},
      {"measurement": "EC90", "setting": "[2]", "result": 580, "unit": "nM"},
      {"measurement": "EC90", "setting": "[3]", "result": 265, "unit": "nM"}
    ]},
    {"smiles": "CC[C@H](C)[C@H](NC(=O)OC)C(=O)N1C[Si](C)(C)C[C@H]1c1nc2ccc3cc(-c4ccc(-c5cnc([C@@H]6CCCN6C(=O)[C@@H](NC(=O)OC)C(C)C)[nH]5)cc4)ccc3c2[nH]1", "note": "[Compound 59]", "values": [
      {"measurement": "EC90", "setting": "[1]", "result": 0.61, "unit": "nM"},
      {"measurement": "EC90", "setting": "[2]", "result": "> 1000", "unit": "nM"},
      {"measurement": "EC90", "setting": "[3]", "result": 245, "unit": "nM"}
    ]},
    {"smiles": "COC(=O)N[C@H](C(=O)N1CCC[C@H]1c1ncc(-c2ccc(-c3ccc4c(ccc5nc([C@@H]6C[Si](C)(C)CN6C(=O)[C@@H](NC(=O)OC)[C@@H](C)OC)[nH]c54)c3)cc2)[nH]1)C(C)C", "note": "[Compound 60]", "values": [
      {"measurement": "EC90", "setting": "[1]", "result": 0.21, "unit": "nM"},
      {"measurement": "EC90", "setting": "[2]", "result": "> 1000", "unit": "nM"},
      {"measurement": "EC90", "setting": "[3]", "result": 52.8, "unit": "nM"}
    ]},
    {"smiles": "COC(=O)N[C@@H](Cc1cccc(O)c1)C(=O)N1C[Si](C)(C)C[C@H]1c1nc2ccc3cc(-c4ccc(-c5cnc([C@@H]6CCCN6C(=O)[C@@H](NC(=O)OC)C(C)C)[nH]5)cc4)ccc3c2[nH]1", "note": "[Compound 61]", "values": [
      {"measurement": "EC90", "setting": "[1]", "result": 0.33, "unit": "nM"},
      {"measurement": "EC90", "setting": "[2]", "result": "> 1000", "unit": "nM"},
      {"measurement": "EC90", "setting": "[3]", "result": 37, "unit": "nM"}
    ]},
    {"smiles": "COC(=O)N[C@@H](Cn1ncnn1)C(=O)N1C[Si](C)(C)C[C@H]1c1nc2ccc3cc(-c4ccc(-c5cnc([C@@H]6CCCN6C(=O)[C@@H](NC(=O)OC)C(C)C)[nH]5)cc4)ccc3c2[nH]1", "note": "[Compound 62]", "values": [
      {"measurement": "EC90", "setting": "[1]", "result": 0.22, "unit": "nM"},
      {"measurement": "EC90", "setting": "[2]", "result": "> 1000", "unit": "nM"},
      {"measurement": "EC90", "setting": "[3]", "result": 91, "unit": "nM"}
    ]},
    {"smiles": "COC(=O)N[C@H](C(=O)N1CCC[C@H]1c1ncc(-c2ccc(-c3ccc4c(ccc5nc([C@@H]6C[Si](C)(C)CN6C(=O)[C@H]6COCCN6C(=O)OC)[nH]c54)c3)cc2)[nH]1)C(C)C", "note": "[Compound 63]", "values": [
      {"measurement": "EC90", "setting": "[1]", "result": 5.1, "unit": "nM"},
      {"measurement": "EC90", "setting": "[2]", "result": "> 1000", "unit": "nM"},
      {"measurement": "EC90", "setting": "[3]", "result": "> 1000", "unit": "nM"}
    ]},
    {"smiles": "COC(=O)N[C@H](C(=O)N1CCC[C@H]1c1ncc(-c2ccc(-c3ccc4c(ccc5nc([C@@H]6C[Si](C)(C)CN6C(=O)[C@@H]6COCCN6C(=O)OC)[nH]c54)c3)cc2)[nH]1)C(C)C", "note": "[Compound 64]", "values": [
      {"measurement": "EC90", "setting": "[1]", "result": 1.6, "unit": "nM"},
      {"measurement": "EC90", "setting": "[2]", "result": "> 1000", "unit": "nM"},
      {"measurement": "EC90", "setting": "[3]", "result": 273, "unit": "nM"}
    ]},
    {"smiles": "COC(=O)N[C@@H](Cc1cn(C)cn1)C(=O)N1C[Si](C)(C)C[C@H]1c1nc2ccc3cc(-c4ccc(-c5cnc([C@@H]6CCCN6C(=O)[C@@H](NC(=O)OC)C(C)C)[nH]5)cc4)ccc3c2[nH]1", "note": "[Compound 65]", "values": [
      {"measurement": "EC90", "setting": "[1]", "result": 0.36, "unit": "nM"},
      {"measurement": "EC90", "setting": "[2]", "result": 564, "unit": "nM"},
      {"measurement": "EC90", "setting": "[3]", "result": 308, "unit": "nM"}
    ]},
    {"smiles": "COC(=O)N[C@@H](Cn1cccn1)C(=O)N1C[Si](C)(C)C[C@H]1c1nc2ccc3cc(-c4ccc(-c5cnc([C@@H]6CCCN6C(=O)[C@@H](NC(=O)OC)C(C)C)[nH]5)cc4)ccc3c2[nH]1", "note": "[Compound 66]", "values": [
      {"measurement": "EC90", "setting": "[1]", "result": 0.39, "unit": "nM"},
      {"measurement": "EC90", "setting": "[2]", "result": "> 1000", "unit": "nM"},
      {"measurement": "EC90", "setting": "[3]", "result": 321, "unit": "nM"}
    ]},
    {"smiles": "CC[C@H](C)[C@H](NC(=O)OC)C(=O)N1CCC[C@H]1c1ncc(-c2ccc(-c3ccc4c(ccc5nc([C@@H]6C[Si](C)(C)CN6C(=O)[C@@H](NC(=O)OC)C(C)C)[nH]c54)c3)cc2)[nH]1", "note": "[Compound 81]", "values": [
      {"measurement": "EC90", "setting": "[1]", "result": 0.3, "unit": "nM"},
      {"measurement": "EC90", "setting": "[2]", "result": 994, "unit": "nM"},
      {"measurement": "EC90", "setting": "[3]", "result": 561, "unit": "nM"}
    ]},
    {"smiles": "COC(=O)N[C@H](C(=O)N1C[Si](C)(C)C[C@H]1c1nc2ccc3cc(-c4ccc(-c5cnc([C@@H]6CCCN6C(=O)[C@@H](NC(=O)OC)C6CC6)[nH]5)cc4)ccc3c2[nH]1)C(C)C", "note": "[Compound 82]", "values": [
      {"measurement": "EC90", "setting": "[1]", "result": 0.24, "unit": "nM"},
      {"measurement": "EC90", "setting": "[2]", "result": 659, "unit": "nM"},
      {"measurement": "EC90", "setting": "[3]", "result": 154, "unit": "nM"}
    ]},
    {"smiles": "COC(=O)N[C@@H](CC1CC1)C(=O)N1CCC[C@H]1c1ncc(-c2ccc(-c3ccc4c(ccc5nc([C@@H]6C[Si](C)(C)CN6C(=O)[C@@H](NC(=O)OC)C(C)C)[nH]c54)c3)cc2)[nH]1", "note": "[Compound 83]", "values": [
      {"measurement": "EC90", "setting": "[1]", "result": 0.46, "unit": "nM"},
      {"measurement": "EC90", "setting": "[2]", "result": 528, "unit": "nM"},
      {"measurement": "EC90", "setting": "[3]", "result": 406, "unit": "nM"}
    ]}
  ]
}
